These results are taken from patent US7282599B2, “Dithiocarbamate antiviral agents and methods of using same” (Avir Green Hills Biotechnology Research Devlopment Trade AG, priority 2001, dated 2007).

In one series the test system is respiratory RNA viruses. The series is described as follows: Action of antioxidants against respiratory RNA viruses (summary statement). Type of series: cell-based.
The next series concerns mengovirus virions. As to conditions: Calvert, Interferon Research 1990; cited from earlier work.
Another series has as its system HeLa cells. Put plainly: Cell proliferation assay on uninfected HeLa cells (toxicity control).
For series [1], the system named is HRV2. Put plainly: Cell Titer 96 cell proliferation assay, viability of HRV2-infected HeLa cells. The conditions noted are these: for protective effect during viral proliferation: determined as described in Example 3, HRV2-infected HeLa cells. Format: cell-based, human rhinovirus. The source says: A cell proliferation assay was done to test the effect of PDTC or DDTC on the viability of the cells during a viral infection.

Series [2] concerns human immunodeficiency virus. As to conditions: asymptomatic and minimally symptomatic HIV patients, HIV87 Study Group 1993; cited from earlier work.
Series [3] deals with HRV2. Put plainly: Crystal violet staining of cell lawn of HRV2-infected HeLa cells. As to conditions: HRV2 100 TCID50 per cell, compound added 1 hour after infection, stained after 24 hours. Type of series: cell-based, human rhinovirus.
The next series relates to influenza virus. The conditions noted are these: Knobil et al., Am. J. Physiol. 1998; cited from earlier work.

Consider Vitamin E, for which the “action against respiratory RNA viruses” value in the series with respiratory RNA viruses is “no action at all”.
With `CCN(CC)C(=S)S` [DDTC, N, N-diethyldithiocarbamate], in the series on mengovirus virions, the “action on mengovirus virions” value is “inactivates mengovirus virions”. In the series on HeLa cells (HeLa cells), the “toxicity of the concentration used to inhibit the viral infections” value is given as “exhibits no toxicity”. Moreover, in the series on HeLa cells (compound alone, uninfected HeLa cells), the “effects on uninfected cells (viability)” value is “only minor effects on uninfected cells”. In the series on HRV2 [1] (HeLa cells, HRV2 20 TCID50/cell, 24 hours after infection, even slight concentrations), the “viability of infected cells” value was “significantly increased”.
As to `CCN(CC)C(=S)S` [dithiocarb], the “cure or improvement of AIDS patients” value in series [2] is “does not cause cure or improvement of the patients”.
Regarding `OCCS` [β-mercaptoethanol], the “action against respiratory RNA viruses” value in the series on respiratory RNA viruses is listed as “no action at all”. The “protective effect during viral proliferation” value in the series on HRV2 [1] was “none of these antioxidants had any protective effect”.
Regarding `Cc1c(C)c2c(c(C)c1O)CCC(C)(C(=O)O)O2` (centres unmarked) [Trolox], the “protective effect during viral proliferation” value in the series with HRV2 [1] was “none of these antioxidants had any protective effect”.
In the case of `O=C1O[C@H]([C@@H](O)CO)C(O)=C1O` [Vitamin C], the “action against respiratory RNA viruses” value in the series with respiratory RNA viruses is “no action at all”. In addition, in the series with HRV2 [1], the “protective effect during viral proliferation” value is given as “none of these antioxidants had any protective effect”.
Turning to `CC(=O)N[C@@H](CS)C(=O)O` [NAC, N-acetylcysteine, reference compound], the “action against respiratory RNA viruses” value in the series with respiratory RNA viruses is given as “no action at all”. For the same compound, the “prevention of destruction of the cell lawn by HRV2 infection” value with HRV2 [3] was “not”. Also, in the series with influenza virus, the “inhibition of influenza virus infection or replication” value is “neither NAC nor PDTC inhibits influenza virus infection or replication”.
